Assay results published in PubChem BioAssay (NCI).
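Where inhibition never reached the appropriate level, the endpoint shown equals the highest concentration tested. Otherwise, values were interpolated linearly from a five-concentration, 48-hour dose response in 96-well plates. GI50 = concentration required for 50% inhibition of growth. TGI marks complete inhibition of growth.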

Experiments:
Test in all cases: NCI anticancer screen, dose series, 48 h
DLD-1 colon = test system: DLD-1 colon
RXF-631 renal = test system: RXF-631 renal
KM20L2 colon = test system: KM20L2 colon
M19-MEL melanoma = test system: M19-MEL melanoma
MDA-MB-435 = test system: MDA-MB-435
MDA-N = test system: MDA-N

SMILES	TGI (DLD-1 colon) [µM]	TGI (RXF-631 renal) [µM]	TGI (KM20L2 colon) [µM]	TGI (M19-MEL melanoma) [µM]	TGI (MDA-MB-435) [µM]	TGI (MDA-N) [µM]	GI50 (MDA-MB-435) [µM]
C[Si](C)(C)c1ccc(-c2sc(-c3ccc([Si](C)(C)C)s3)c3c2C[Si]2(C3)Cc3c(-c4ccc([Si](C)(C)C)s4)sc(-c4ccc([Si](C)(C)C)s4)c3C2)s1	> 100	> 100	> 100	> 100	–	–	–
CCSCCCN(CCCSCC)CCCSCC	–	–	–	–	> 100	> 100	–
Cc1ccc(S(=O)(=O)Nc2cccc3[nH]c(C(F)(F)F)nc23)cc1	–	–	–	–	> 100	–	0.204
CN(/N=C/c1cccc2cccnc12)c1ccccc1	> 100	–	> 100	> 100	–	–	–
C/C=C(\C)C(=O)O[C@H]1C=CC(=O)O[C@@H]1CC[C@H](O)[C@H](C)O	–	–	–	–	> 100	–	34.6
COc1cccc(-n2ncc3c(N/N=C/c4ccncc4)ncnc32)c1	–	–	–	–	> 25	–	1.46
C/C=C(/COC(C)=O)C(=O)OC1C=C(C=O)C(C)(C)C=C1C (stereo not given)	–	–	–	–	> 100	> 100	–
COc1ccc(OC)c(-c2c(C#N)c(N)nc(N3CCOCC3)c2C#N)c1	–	–	–	–	> 100	–	> 100
Nc1[nH]nc2nc(-c3cccs3)cc(C(F)(F)F)c12	–	–	–	–	> 25	–	> 25
COc1ccc(C(C#N)Cc2cc(OC)c(OC)c(OC)c2)cc1 (stereo not given)	> 100	> 100	–	> 100	–	–	–
N#CC(c1nc2ccccc2nc1Cl)S(=O)(=O)c1ccccc1 (stereo not given)	> 100	–	> 100	> 100	–	–	–
CC[C@H](CO)Nc1nc(NCc2ccccc2)n2ncc(C(C)C)c2n1	–	–	–	–	10.1	–	2.06
CS[C@]12C(=O)C[C@@]3(C)[C@@H](CC[C@]3(O)C(=O)CO)[C@@H]1CCC1=CC(=O)CC[C@@]12C	–	–	–	–	> 100	69.4	–
Cc1[nH]c2ccccc2c1C1Cc2ccccc2N1C(=O)/C=C/C(=O)O (stereo not given)	> 100	41.3	> 100	> 100	–	–	–
CN1c2ccccc2N(C)C23N(C)c4ccccc4N(C)C12N(C)c1ccccc1N3C (stereo not given)	> 100	> 100	> 100	> 100	–	–	–
Nc1nc(Nc2ccc(C3CCC(N4CCOCC4)CC3)cc2)nn1-c1ccccn1 (stereo not given)	–	–	–	–	> 100	–	3.57
CCOC(=O)NC(=O)c1cn(CCN2CCN(c3ncnc4nc[nH]c34)CC2)c(=O)[nH]c1=O	> 100	> 100	> 100	> 100	–	–	–
CCc1cccc(C)c1NC(=O)C(=O)Cc1nc2ccccc2s1	> 100	> 100	> 100	> 100	–	–	–

SMILES	TGI (DLD-1 colon) [µM]	TGI (RXF-631 renal) [µM]	TGI (KM20L2 colon) [µM]	TGI (M19-MEL melanoma) [µM]	TGI (MDA-MB-435) [µM]	TGI (MDA-N) [µM]	GI50 (MDA-MB-435) [µM]
COC(=O)c1cc(Cl)ccc1NC(=O)c1ccc([N+](=O)[O-])cc1	> 100	36.5	76.8	> 100	–	–	–
CCCOC(=O)N1CCN(/[N+]([O-])=N/Oc2ccc([N+](=O)[O-])cc2[N+](=O)[O-])CC1	–	–	–	–	12.2	–	0.366
Cc1ccccc1NC(=O)C(=O)CC(=O)c1c(C)n([O-])c2ccccc2[n+]1=O	> 100	–	> 100	> 100	–	–	–
O=C1CC(S(=O)(=O)O)C=C1Nc1cccc(Cl)c1 (stereo not given)	> 100	–	> 100	> 100	–	–	–
CC#CC(=O)SCCNC(=O)CC	–	–	–	–	> 10	> 10	–
COc1ccc(/C=N/N=C(\N)NO)c(OC)c1	> 100	–	–	> 100	–	–	–
COc1c(Cl)cc(NC(=S)C#N)cc1Cl	> 100	51.3	54.4	50.2	92.8	69.1	–
CC1=C(CO)C(=O)O[C@@H]([C@@H](C)[C@H]2CC[C@H]3[C@@H]4C[C@@H](O)[C@@]5(O)CC=CC(=O)[C@]5(C)[C@H]4CC[C@]23C)C1	–	–	–	–	> 100	> 100	–
COc1ccc(OC)c2c1C(=O)C1CC1(Br)C2=O (stereo not given)	> 100	–	> 100	> 100	–	–	–
O=CN/C=C/c1ccc(O)c(O)c1	> 100	> 100	> 100	> 100	–	–	–
C1=C2/CC[C@H](Sc3ccccc3)[C@H]2C2(CCCCC/1)OCCO2	> 100	–	45.3	67	–	–	–
Cc1ccc(N2C(=O)C3C=CC(n4[nH]c(=O)n(Cc5ccccc5)c4=O)CC3C2=O)cc1 (stereo not given)	> 100	–	> 100	> 100	–	–	–
O=CC1CCCc2ccccc21 (stereo not given)	> 63.8	–	> 100	> 100	–	–	–
CCOC(=O)C(=Cc1cccnc1C)C(=O)OCC	47.4	39.7	10.7	22.3	–	–	–
O=C(Nc1ccc(Cl)cc1)Nc1ccc(Nc2nncc3ccccc23)cc1	–	–	–	–	9.42	–	2.14
Cc1cccc(C(C)C)c1NC(=O)CC1C(=O)Nc2ccccc2S1(=O)=O (stereo not given)	> 45.6	> 52.6	51.5	> 57.4	–	–	–
O=C1c2c(O)cccc2C(C2OC(CO)C(O)C(O)C2O)c2cc(CO)cc(O)c21 (stereo not given)	–	–	–	–	> 100	> 100	–
O=c1c2ccccc2nc(-c2ccccc2)n1NC1OC(CO)C(O)C(O)C1O (stereo not given)	> 100	> 100	> 100	> 100	–	–	–
